Eleven compounds from patent US11337935B2, “Identification of stabilizers of multimeric proteins” (The Board of Trustees of the Leland Stanford Junior …, priority 2010, dated 2022) can be followed below.

One may read the IC50 as the midpoint of a concentration-inhibition curve.

One series has as its target human wild type TTR (Homo sapiens (Human), UniProt P02766). In words: Isothermal titration calorimetry (ITC) of ligands against TTR. Type of series: binding. How it is done:
Calorimetric titrations were carried out on a VP-ITC calorimeter (MicroCal, Northhampton, Mass.). […] Prior to each titration, all samples were degassed for 10 minutes. The initial injection of 3.0 μL was followed by 30 injections of 8.0 μL each (25° C.) to the point that TTR was fully saturated with ligand. Integration of the thermogram after subtraction of blanks yielded a binding isotherm that was analyzed with MicroCal Origin 5.0 software.

Series [1] has as its system V122I TTR cytotoxicity in human AC16 cardiac cells. The series is described as follows: Inhibition of V122I TTR cytotoxicity. The following applies: V122I TTR and ligand 8 μM each, AC16, 24 h.
Protocol: (§1) The human cardiac cell line AC16 was maintained in DMEM:F12 (1:1) supplemented with 10% FBS, 1 mM Hepes buffer, 2 mM L-glutamine, 100 units/mL penicillin and 100 μg/mL streptomycin. Two to 4-day-old cultures (˜70% confluent) were used for the experiments.
(§2) Recombinant WT TTR purified in the cold in HBSS (Mediatech, Manassas, Va.) was used as a cytotoxic insult to IMR-32 cells and the amyloidogenic V122I TTR was used as cytotoxic insult to cardiac AC16 cells. Candidate compounds (16 mM in DMSO) were diluted 1:1000 with WT TTR or V122I TTR (16 mM in HBSS, filter sterilized) or with HBSS only. The mixtures were vortexed and incubated for 24 h at 4° C. WT TTR or V122I TTR (16 mM in HBSS) containing the same amount of DMSO than TTR/candidate compound mixtures was prepared in parallel and incubated under the same conditions.
(§3) The neuroblastoma IMR-32 and the cardiac AC16 cells were seeded in black wall, clear bottom, tissue culture treated 96-well plates (Costar) at a density of 6,000 cells/well and 250 cells/well, respectively in Opti-mem supplemented with 5% FBS, 1 mM Hepes buffer, 2 mM L-glutamine, 100 units/mL penicillin and 100 μg/mL streptomycin, 0.05 mg/mL CaCl2 and incubated overnight at 37° C. The medium was then removed and replaced immediately by the TTR/compound or HBSS previously diluted 1:1 in Opti-mem supplemented with 0.8 mg/mL BSA, 2 mM Hepes buffer, 4 mM L-glutamine, 200 units/mL penicillin, 200 μg/mL streptomycin and 0.1 mg/mL CaCl2. The cells were incubated 24 h at 37° C. after which cell viability was measured.
(§4) Cell viability of the cells treated with TTR or TTR/candidate compound was evaluated by a resazurin reduction assay. Briefly, 10 μL/well of resazurin (500 mM, PBS) was added to each well and incubated for 2-3 h at 37° C. Viable cells reduce resazurin to the highly fluorescent resorufin dye, which is quantitated in a multiwell plate reader (Ex/Em 530/590 nm, Tecan Safire2, Austria). Cell viability was calculated as percentage of fluorescence relative to cells treated with vehicle only (100% viability) after subtraction of blank fluorescence (wells without cells). All experimental conditions were performed at least in six replicates. Averages and SEM corresponding to 2 independently performed experiments were calculated.
(§5) The compounds under study were pre-incubated with WT TTR or V122I TTR for 24 h at 4° C. at equimolar concentrations (8 μM) and added to IMR-32 cells or AC16 cells, respectively. Cell viability was measured after 24 h by a resazurin reduction assay. […] The percentage of viable cells was calculated relative to cells treated with vehicle only (cell culture media and DMSO)—which were assigned to be 100% viable.
Series [2] concerns the target wild type biotinylated TTR (Homo sapiens (Human), UniProt P02766). The series is described as follows: Surface plasmon resonance (SPR) assay on immobilized biotinylated TTR. Type of series: binding. The protocol:
To an ice-cold solution of TTR (20 μM) in PBS was added EZ-Link Sulfo-NHS-LC-Biotin at a ratio of ˜2:1 (biotin:TTR) (minimal biotinylation) and the solution was incubated at room temperature. After 1 hour, un-reacted biotin was removed by passing the sample over a fast (FPLC) desalting column (Superdex™ 75) equilibrated with PBS.
SPR measurements were performed at 25° C. using a Biacore T100 (GE Healthcare) instrument equilibrated in 1% DMSO in PBS as a running buffer. After pretreatment of the streptavidin-coated chip (Sensor Chop SA, Biacore), ˜4000 RU biotinylated TTR was immobilized on one channel leaving the second flow channel as a blank (streptavidin alone) control. For binding measurements, HTS hits were diluted in running buffer (1% DMSO/PBS) and different dilution series were flowed over the chip at 50 μL/min ([…], 600 s wash). A zero concentration sample was used as a negative control. The kinetic data was fitted to a one-to-one binding model using Biacore T100 evaluation software.
Background: Surface plasmon resonance follows binding to a sensor surface in real time, without labels.

For series [3], the system named is WT TTR cytotoxicity in human IMR-32 neuroblastoma cells. The series is described as follows: Inhibition of WT TTR cytotoxicity. The following applies: WT TTR and ligand 8 μM each, IMR-32, 24 h.
Protocol: as §1, §2, §3, §4, §5
Series [4] has as its target T1, TTR (Homo sapiens (Human), UniProt P02766). The series is described as follows: Determination of IC50 using the FP assay (HTS format). The class given is binding. The following applies: read-out: IC50 (50% decrease in the FP signal); repurchased top 33 hits, 10-point duplicate dose-response.
In the next series the target is WT TTR (Homo sapiens (Human), UniProt P02766). The series is described as follows: Acid-mediated fibril formation assay for TTR amyloidogenesis (turbidity). The following applies: ligand 7.2 μM, TTR 3.6 μM, pH 4.4, 37° C., 72 h; no inhibitor = 100%.
Series [5] has as its target T1, TTR. The series is described as follows: FP saturation binding experiment. The following applies: FITC alone. The protocol: The binding of probe 5 for TTR was evaluated as follows. […] The samples were allowed to equilibrate by agitation for 20 min at room temperature. Fluorescence polarization (excitation λ 485 nm, emission λ 525 nm, Cutoff λ 515 nm) measurements were taken using SpectraMax M5 Microplate Reader (Molecular Devices). […] Nonspecific FP, produced by the free fluorescent probe 5 as well as by binding of 5 to the plate, was equal to 70±10 mP.

For `O=C(O)c1ccccc1Nc1cc(Cl)c(OCCOCCOCCNC(=S)Nc2ccc3c(c2)C(=O)OC32c3ccc(O)cc3Oc3cc(O)ccc32)c(Cl)c1` [Compound 5, 2-(3,5-dichloro-4-(2-(2-(2-(3-(3′,6′-dihydroxy-3-oxo-3H-spiro[isobenzofuran-1,9′-xanthene]-5-yl)thioureido)ethoxy)ethoxy)ethoxy)phenylamino)benzoic acid], the “Decrease in binding affinity to TTR relative to 4 (fold)” value on human wild type TTR is listed as ~3 fold.

For `O=C(O)c1cccnc1Nc1cccc(C(F)(F)F)c1` [Niflumic acid, niflumic acid, reference compound], the “Prevention of TTR-induced cytotoxicity” value in series [1] is “relatively poor inhibitor”.

For the compound `O=C(O)Cc1ccccc1Nc1c(Cl)cccc1Cl` [Diclofenac], in series [2], the “lower target residence time than 7 (fold)” value is reported as ~40 ×.

`O=[N+]([O-])c1cc(O)c(O)c([N+](=O)[O-])c1` [3,5-dinitrocatechol, 3,5-dinitrocatechol, reference compound]: the “Prevention of TTR-induced cytotoxicity” value in series [3] and in series [1] was “poor inhibitor” in each case.

For `Cc1n[nH]c(C)c1CCc1nc2c3ccccc3[nH]c(=S)n2n1` [Compound 15], the “Prevention of TTR-induced cytotoxicity” value in series [3] and in series [1] was “completely prevented” in each case.

Regarding `O=C(c1cc(O)c(O)c([N+](=O)[O-])c1)c1ccccc1F` [Ro 41-0960, reference compound], the “Prevention of TTR-induced cytotoxicity” value in series [3] and in series [1] was “completely prevented” throughout.

As to `Cc1ccc(Cl)c(Nc2ccccc2C(=O)O)c1Cl`, at TTR [4], the half-maximal inhibitory concentration (IC50) came out at 504 nM. On WT TTR, the “% fibril formation” value is given as 3.87 ± 0.93%.

As to `CN1C(=N)NC(=O)/C1=C/c1cc(Br)c(O)c(Br)c1` [Compound 14], the “Prevention of TTR-induced cytotoxicity” value in series [3] and in series [1] was “completely prevented” throughout.

On to `Cc1n[nH]c(C)c1CCCOc1ccccc1F` [Compound 7], for which the “Prevention of TTR-induced cytotoxicity” value in series [3] and in series [1] was “completely prevented” each time.

Take Fluorescein isothiocyanate [FITC]: the “Interaction with TTR (change in FP signal upon addition of TTR)” value on TTR [5] is reported as “no interaction with TTR”.

Consider `O=C(O)Cc1ccccc1Nc1c(Cl)cccc1Cl` [drawing 78], for which, at TTR [4], the IC50 is 3740 nM. Besides, the “% fibril formation” value on WT TTR is given as 11.56 ± 0.72%.
